According to ChEMBL document CHEMBL1667798, “Synthesis of new isoxazoline-based acidic amino acids and investigation of their affinity and selectivity profile at ionotropic glutamate receptors” (Eur J Med Chem, 2011):

Columns and labels:
[1] = Displacement of [3H]KAIN from kainate receptor in Sprague-Dawley rat brain synaptic membrane after 60 mins by scintillation counting
Glutamate NMDA receptor [2] = test: Displacement of [3H]CPP from NMDA receptor in Sprague-Dawley rat brain synaptic membrane after 60 mins by scintillation counting
[3] = Displacement of [3H]AMPA from AMPA receptor in Sprague-Dawley rat brain synaptic membrane after 30 mins by scintillation counting
Glutamate NMDA receptor [4] = test: Displacement of [3H]CGP 39653 from NMDA receptor in Sprague-Dawley rat brain synaptic membrane after 60 mins by scintillation counting

Structure (SMILES) | Ki [1] | Ki (Glutamate NMDA receptor [2]) | Ki [3] | Ki (Glutamate NMDA receptor [4])
C[C@@H]1ON=C(C(=O)O)[C@@H]1C[C@@H](N)C(=O)O (racemic) | > 100 µM | – | > 100 µM | 60 µM
C[C@H]1C(C(=O)O)=NO[C@H]1C[C@@H](N)C(=O)O (racemic) | > 100 µM | – | 4.1 µM | 3 µM
N[C@H](C[C@H]1CC(C(=O)O)=NO1)C(=O)O (racemic) | > 100 µM | – | > 100 µM | 0.21 µM
N[C@@H](C[C@H]1CC(C(=O)O)=NO1)C(=O)O (racemic) | > 100 µM | – | > 100 µM | 0.96 µM
N[C@@]1(C(=O)O)C[C@@H]2ON=C(C(=O)O)[C@@H]2C1 (racemic) | > 100 µM | – | > 100 µM | –

Other lines, results leading:

Ki [1] | Ki (Glutamate NMDA receptor [2]) | Ki [3] | Ki (Glutamate NMDA receptor [4]) | Structure (SMILES)
6.3 µM | > 100 µM | 0.02 µM | – | Cc1onc(C(=O)O)c1CC(N)C(=O)O (racemic)
> 100 µM | – | > 100 µM | 18 µM | C[C@@H]1ON=C(C(=O)O)[C@@H]1C[C@H](N)C(=O)O (racemic)
56 µM | – | 31 µM | 5.1 µM | C[C@H]1C(C(=O)O)=NO[C@H]1C[C@H](N)C(=O)O (racemic)
